Values of other authors as cited in patent US20170326105A1, “MELATONIN-BASED NASAL COMPOSITIONS AND USES THEREOF” (The Lester Smith Medical Research Institute, LLC, priority 2016, published 2017).

time for plasma levels to return to baseline (after discontinuation of chronic dosing of less than 10 mg/day): ≤ 24 h
estimated peak blood levels above physiological levels (doses of melatonin 5 mg): 25 times
time after administration for blood plasma concentration to reach its peak (oral administration): over an hour
Compound: COc1ccc2[nH]cc(CCNC(C)=O)c2c1 [melatonin, N-acetyl-5-methoxy tryptamine]
